Data reported in patent US9060970B2, “Bridge-helix cap: target and method for inhibition of bacterial RNA polymerase” (priority 2011, dated 2015).
“Also recorded” adds a separate entry of the source. Starred links: 1 amine or outer side, 2 acyl side, 3 side chain; linkers in the order of their positions; H or OH if unused. Positions of bridges follow the written chain, without caps; N, C: chain ends. Non-standard residues stand in square brackets, D forms with d. Residues, ends and D or L forms follow the SMILES beside them. *: point of attachment. X2 = C[C@H](Oc1ccc([C@H](N[*:1])C(=O)[*:2])cc1)[C@@]1(/C=C/C(=O)[*:3])CO1; X1 = CC(C)[C@H](O)[C@H](C)C(=O)*; aIle = CC[C@@H](C)[C@H](N)C(=O)O; dNMeF = CN[C@H](Cc1ccccc1)C(=O)O; aThr = C[C@H](O)[C@H](N)C(=O)O

Columns and labels:
Format in all cases: cell-based, Escherichia coli
[1] = tested on: DNA synthesis in E. coli D21f2tolC; assay: DNA synthesis in vivo ([14C]-thymidine incorporation, macromolecular synthesis assay); details: Sal at two times MIC; 5, 10, 15 min after addition
Procedure: Sal Inhibits RNA Synthesis in vivo. To determine whether Sal inhibits RNAP in vivo, effects of Sal on RNA synthesis in vivo were assayed, and, as a control, effects of Sal on DNA synthesis in vivo were assayed. Sal was added to cultures of E. coli D21f2tolC growing in media containing either a radioactively labeled RNA-synthesis precursor ([^14C]-uracil) or a radioactively labeled DNA synthesis precursor ([^14C]-thymidine); aliquots were removed and mixed with trichloroacetic acid (TCA) 0, 5, 10, and 15 min thereafter to lyse cells and precipitate nucleic acids; TCA-precipitated nucleic acids were collected by vacuum filtration; and radioactivity in TCA-precipitated nucleic acids was quantified (FIG. 2A). […] The effect was specific; addition of Sal to bacterial cultures had no effect on DNA synthesis (FIG. 2B, right panel). It is concluded that Sal inhibits RNA synthesis in vivo, and it is inferred that Sal inhibits RNAP in vivo.
Measurement of Nucleic Acid Synthesis in vivo. Macromolecular synthesis assays were performed essentially as in reference 5. […] Radioactivity was quantified using a Typhoon Variable Mode Imager and ImageQuant v5 (Molecular Dynamics, Inc.).

E. coli D21f2tolC = assay: Spontaneous resistance frequency by plating on LB agar containing inhibitor
From the text: Sal-Resistant Mutants Map to RNAP-Subunit Genes. To determine whether Sal kills bacteria by inhibiting RNAP, spontaneous Sal-resistant mutants were isolated, and genes for RNAP subunits in Sal-resistant mutants were PCR-amplified and sequenced (FIG. 3A). Spontaneous Sal-resistant mutants were isolated by plating high-density cultures of E. coli D21f2tolC (˜3×10^9 cells per plate) on agar containing Sal and identifying rare resistant colonies (FIG. 3B). For each Sal-resistant mutant, genomic DNA was prepared, and the genes for the largest RNAP subunit and the second-largest RNAP subunit—rpoC encoding RNAP β′ subunit and rpoB encoding RNAP β subunit were PCR-amplified and sequenced (FIG. 3C).
Co-Administration of Sal and Rifampin Reduces Spontaneous Resistance to Undetectable Levels.
Co-Administration of Sal and CBR703 Reduces Spontaneous Resistance to Undetectable Levels.
(§1) Isolation of Sal-Resistant Mutants: Spontaneous Sal-Resistant Mutants. E. coli D21f2tolC (6) was cultured to saturation in 5 ml LB broth (7) at 37° C., cultures were centrifuged, and cell pellets (˜3×10^9 cells) were re-suspended in 50 μl LB broth and plated on LB agar (7) containing 1.2 μg/ml Sal (a concentration four times the minimal concentration required to prevent growth of wild-type cells under these conditions), and incubated 24-48 h at 37° C. Sal-resistant mutants were identified by the ability to form colonies on this medium and were confirmed by re-streaking on the same medium.

[2] = tested on: Sal-resistant mutants of E. coli D21f2tolC (rpoC / rpoB substitutions); assay: Broth microdilution resistance / cross-resistance levels of spontaneous Sal-resistant mutants
Procedure: as §1
Quantitation of Resistance to Sal. Resistance to Sal was quantified by performing broth microdilution assays. Single colonies were inoculated into 3 ml LB broth, and incubated 3-6 h at 37° C. with shaking. Diluted aliquots (2×10^4 cells in 98 μl LB broth; concentrations determined using OD600=1 for 10^9 cells) were dispensed into wells of a 96-well plate, were supplemented with 2 μl of a 2-fold dilution series of Sal in methanol (final concentrations of […], 0.390, 0.195, 0.0975, 0.0488, 0.0244, 0.0122, and 0.00609 μg/ml) or 2 μl of a solvent blank, and were incubated 16 h at 37° C. with shaking. The minimum inhibitory concentration (MIC) was defined as the lowest tested concentration of Sal that inhibited bacterial growth by 95%.
Quantitation of Cross-Resistance to Rifampin and CBR703. Cross-resistance levels were determined analogously to resistance levels, using 0.12-0.78 μg/ml of rifampin (Sigma, Inc.) and 0.39-25 μg/ml of CBR703 (Maybridge, Inc.).

[3] = tested on: Derivatives of E. coli D21f2tolC containing rifamycin-resistant rpoB mutations; assay: Broth microdilution cross-resistance of rifamycin-resistant mutants to Sal

## CC[C@@H](C)[C@@H]1NC(=O)[C@H](NC(=O)[C@@H](C)[C@@H](O)C(C)C)[C@H](C)OC(=O)[C@H]2COC(=O)CNC(=O)/C=C/[C@@]3(CO3)[C@H](C)Oc3ccc(cc3)[C@H](NC1=O)C(=O)N(C)[C@H](Cc1ccccc1)C(=O)N[C@@H]([C@H](C)O)C(=O)N2 [Sal, salinamide A] (X1-[dT][aIle][X2][dNMeF][aThr][dS]; ester 1-C; linker 3-6 via G)
[1]
  effect on DNA synthesis in vivo: no effect
E. coli D21f2tolC; LB agar, each compound at 4×MIC, colonies counted after 24 h at 37° C.
  spontaneous resistance frequency: 4×10^−9
E. coli D21f2tolC; ~3×10^9 cells per plate, LB agar with 1.2 μg/ml Sal, 24-48 h at 37° C.
  frequency of spontaneous mutation to Sal-resistance: ~4 × 10^−9
[2]; all analyzed Sal-resistant mutants (Tables 2, 3)
  resistance to Sal, all analyzed mutants: at least 2 fold
[2]; rpoB (RNAP β subunit) 569 Ile→Ser
  resistance level (MIC/MICwild-type): >16
[2]; rpoB (RNAP β subunit) 675 Asp→Ala
  resistance level (MIC/MICwild-type): >16
[2]; rpoB (RNAP β subunit) 677 Asn→His
  resistance level (MIC/MICwild-type): >16
[2]; rpoB (RNAP β subunit) 677 Asn→Lys
  resistance level (MIC/MICwild-type): >16
[2]; rpoC (RNAP β′ subunit) 690 Asn→Asp
  resistance level (MIC/MICwild-type): 16
[2]; rpoC (RNAP β′ subunit) 697 Met→Val (one isolate also 1054 Thr→Ala)
  resistance level (MIC/MICwild-type): >16
[2]; rpoC (RNAP β′ subunit) 738 Arg→Cys
  resistance level (MIC/MICwild-type): >16
[2]; rpoC (RNAP β′ subunit) 738 Arg→His
  resistance level (MIC/MICwild-type): >16
[2]; rpoC (RNAP β′ subunit) 738 Arg→Pro
  resistance level (MIC/MICwild-type): >16
[2]; rpoC (RNAP β′ subunit) 738 Arg→Ser
  resistance level (MIC/MICwild-type): >16
[2]; rpoC (RNAP β′ subunit) 748 Ala→Glu
  resistance level (MIC/MICwild-type): 16
[2]; rpoC (RNAP β′ subunit) 758 Pro→Ser
  resistance level (MIC/MICwild-type): 16
[2]; rpoC (RNAP β′ subunit) 763 Phe→Cys
  resistance level (MIC/MICwild-type): 16
[2]; rpoC (RNAP β′ subunit) 775 Ser→Ala
  resistance level (MIC/MICwild-type): 8
[2]; rpoC (RNAP β′ subunit) 779 Ala→Thr
  resistance level (MIC/MICwild-type): >16
[2]; rpoC (RNAP β′ subunit) 779 Ala→Val
  resistance level (MIC/MICwild-type): >16
[2]; rpoC (RNAP β′ subunit) 780 Arg→Cys
  resistance level (MIC/MICwild-type): >16
[2]; rpoC (RNAP β′ subunit) 783 Leu→Arg
  resistance level (MIC/MICwild-type): >16
[2]; thirteen of the Sal-resistant mutants
  resistance to Sal, thirteen mutants: > 16 fold
[3]; rifampin-resistant mutant rpoB (RNAP β subunit) 516 Asp→Val
  cross-resistance level (MIC/MICwild-type): 1
[3]; rifampin-resistant mutant rpoB (RNAP β subunit) 526 His→Asp
  cross-resistance level (MIC/MICwild-type): 1
[3]; rifampin-resistant mutant rpoB (RNAP β subunit) 526 His→Tyr
  cross-resistance level (MIC/MICwild-type): 1
[3]; rifampin-resistant mutant rpoB (RNAP β subunit) 531 Ser→Leu
  cross-resistance level (MIC/MICwild-type): 1
[3]; β Asp516→Val, His526→Asp, His526→Tyr, Ser531→Leu mutants (Table 5)
  cross-resistance of rifamycin-resistant mutants (in words): not cross-resistant; also recorded: no cross-resistance
